Measurements from patent US12678509B2, “Inhibitor of apoptosis (IAP) protein antagonists” (Sanford Burnham Prebys Medical Discovery Institute, priority 2019, dated 2026).
pEC50, pIC50, pKi: −log10 of the molar value.

Legend:
[1] = Cell viability (CellTiter-Glo), 6-day compound treatment; type: cell-based, Human; conditions: human, HFF cells, 6 d, read-out: Cell viability at max. concentration
Protocol: (§1) The compound 18a was tested in 16 different cell lines. For 6-day compound treatment 1700 cells per well were plated in a 384-well plate (Corning #781098) and incubated overnight at 37° C./5% CO2. The following day, compounds in 10-fold dilutions were added to the plates and the plates were incubated for 6 days. Afterwards, 20 μL CellTiter-Glo reagent (Promega, #G7570) was added to each well outside of the incubator and the plates were read for luminescence on a Spark® multimode microplate reader (Tecan). Data was fit in GraphPad Prism 8 to a nonlinear regression curve to determine the IC50 of the compounds.

BT549 = assay: as above; type: cell-based, Human
Protocol: as §1

BxPC3 = assay: as above; type: cell-based, Human
Protocol: as §1

HL-60 = assay: as above; type: cell-based, Human
Protocol: as §1

MDA-MB-231 = assay: as above; type: cell-based, Human
Protocol: as §1

MV411 = assay: as above; type: cell-based, Human
Protocol: as §1

MiaPaCa2 = assay: as above; type: cell-based, Human
Protocol: as §1

PANC1 = assay: as above; type: cell-based, Human
Protocol: as §1

SW-1271 = assay: as above; type: cell-based, Human
Protocol: as §1

BIR3 domain of XIAP = BIR3 domain of XIAP (Homo sapiens, UniProt P98170); assay: Fluorescence polarization assay; type: binding; conditions: SMAC-FITC probe, Ki calculated from IC50
Summary of the method: (§2)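 Competitive FP with 50 nM SMAC-FITC probe in 100 mM KH2PO4 pH 7.5, 50 μM ZnSO4, 1 mM TCEP; cIAP1 and XIAP at 800 nM, cIAP2 and ML-IAP at 1.5 μM. Compounds 30 μM to 1.5 nM in 3-fold steps; ex 485/em 535 nm. IC50 by nonlinear fit, converted to Ki via Nikolovska-Coleska equation.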

BIR3 domain of cIAP1 = BIR3 domain of cIAP1 (Homo sapiens, UniProt Q13490); assay: Fluorescence polarization assay; type: binding; conditions: SMAC-FITC probe, Ki calculated from IC50
Summary of the method: as §2

BIR3 domain of cIAP2 = BIR3 domain of cIAP2 (Homo sapiens, UniProt Q13489); assay: Fluorescence polarization assay; type: binding; conditions: SMAC-FITC probe, Ki calculated from IC50
Summary of the method: as §2

ML-IAP = biological target: T1, ML-IAP (Homo sapiens, UniProt Q96CA5); assay: Fluorescence polarization assay; type: binding; conditions: SMAC-FITC probe, Ki calculated from IC50
T1 sequence (Q96CA5 1-298): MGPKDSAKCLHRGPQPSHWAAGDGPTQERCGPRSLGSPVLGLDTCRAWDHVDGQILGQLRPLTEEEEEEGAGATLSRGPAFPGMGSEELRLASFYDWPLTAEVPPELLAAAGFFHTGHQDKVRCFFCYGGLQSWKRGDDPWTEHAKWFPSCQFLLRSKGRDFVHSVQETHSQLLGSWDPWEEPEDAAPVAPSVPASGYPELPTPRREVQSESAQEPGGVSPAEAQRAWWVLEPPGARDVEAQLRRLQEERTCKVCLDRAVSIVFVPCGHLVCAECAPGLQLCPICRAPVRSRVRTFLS
Summary of the method: as §2

[2] = tested on: latently infected cell line Jurkat 2D10; assay: HIV Jurkat 2D10 cells GFP+ assay (reversal of HIV latency); type: cell-based
Summary of the method: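 Jurkat 2D10 cells exposed to graded doses of test compounds or IAP antagonists (BV-6, SM-164, Birinapant, LCL-161, GDC-0152, AT-406) for 48 hours. GFP expression quantified by flow cytometry. Induction expressed relative to baseline GFP in untreated cells.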

resting CD4+ T cells = assay: T cell activation (CD69 and CD25 expression, flow cytometry); type: cell-based; conditions: resting CD4+ T cells of healthy human donors (FIG. 2)
Protocol: (§3) Compound 18a was also tested for its impact on T cell activation and cytokine release. Peripheral blood mononuclear cells (PBMC) were isolated by Ficoll density gradient centrifugation (Histopaque, Sigma Aldrich) from buffy coats of three healthy human donors (San Diego Blood Bank). Resting CD4^+ T cells were subsequently isolated by negative selection using magnetic beads (Miltenyi Biotec). Cells were treated with compound 18a, or 50 ng/ml Phorbol myristate acetate (PMA) and 1 μM lonomycin, or Dynabeads Human T-Activator CD3/CD28 (ThermoFisher Scientific) at a bead-to-cell ratio of 1:1, or left untreated. Expression of the early and late activation markers CD69 and CD25 on CD4+ T cells was assessed by flow cytometry using a Phycoerythrin-labeled anti-CD69 antibody (BioLegend; Cat #310906) and an Allophycocyanin-labeled anti-CD25 antibody (BioLegend; Cat #302610). Cytokine expression levels in cultures of PBMC or resting CD4+ T cells were analyzed using the LEGENDplex Human Inflammation Panel 13-plex (BioLegend).

[3] = tested on: PBMC or resting CD4+ T cells; assay: Cytokine release (LEGENDplex Human Inflammation Panel 13-plex); type: cell-based; conditions: PBMC or resting CD4+ T cells of healthy human donors (FIG. 3)
Protocol: as §3

Chain of BIR3 domain of XIAP (P98170 241-356 limits assumed): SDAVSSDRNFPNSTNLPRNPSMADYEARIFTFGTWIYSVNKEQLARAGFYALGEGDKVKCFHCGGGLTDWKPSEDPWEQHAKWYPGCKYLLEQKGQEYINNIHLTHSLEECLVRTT
Chain of BIR3 domain of cIAP1 (Q13490 253-363 limits assumed): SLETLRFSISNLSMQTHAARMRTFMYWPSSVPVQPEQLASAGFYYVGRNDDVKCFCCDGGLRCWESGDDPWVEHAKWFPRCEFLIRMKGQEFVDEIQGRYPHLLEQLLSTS
Chain of BIR3 domain of cIAP2 (Q13489 238-349 limits assumed): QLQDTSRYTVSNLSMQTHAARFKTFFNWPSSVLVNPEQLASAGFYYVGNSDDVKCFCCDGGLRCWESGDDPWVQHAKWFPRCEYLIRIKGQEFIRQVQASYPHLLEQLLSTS

In the case of CN[C@@H](C)C(=O)N[C@H]1CCS[C@H]2CC(C)(C)[C@@H](C(=O)N[C@H]3c4ccccc4C[C@H]3OCC#CC#CCO[C@@H]3Cc4ccccc4[C@@H]3NC(=O)[C@H]3N4C(=O)[C@@H](NC(=O)[C@H](C)NC)CCS[C@H]4CC3(C)C)N2C1=O [Compound 18a, (2S)-1-{[(4S,7S,9aS)-74{(1S,2R)-2-[(6-{[(1S,2R)-1-({[(4S,7S,9aS)-8,8-Dimethyl-4-{[(2S)-2-(methylammonio)propanoyl]amino}-5-oxooctahydropyrrolo[2,1-b][1,3]thiazepin-7-yl]carbonyl}amino)-2,3-dihydro-1H-inden-2-yl]oxy}hexa-2,4-diyn-1-yl)oxy]-2,3-dihydro-1H-inden-1-yl}carbamoyl)-8,8-dimethyl-5-oxooctahydropyrrolo[2,1-b][1,3]thiazepinyl]amino}-N-methyl-1-oxopropan-2-ammonium dichloride], the viability at 6 d [1] was under 100%, the “Cell viability at max. concentration” value (BT549; BT549, 6 d) was “I (I<10%)” and the pIC50 (BT549; Homo sapiens, BT-549, 144 h, read-out: IC50 6 d) was 7.00 to 8.00. For the same molecule, the “Cell viability at max. concentration” value (BxPC3; BxPC3, 6 d) was “III (50%<III<100%)”, the pIC50 (BxPC3; Homo sapiens, BXPC-3, 144 h, read-out: IC50 6 d) was 5.00 to 6.00 and the “Cell viability at max. concentration” value (HL-60; HL-60, 6 d) was “I (I<10%)”. For the same molecule, the pIC50 (HL-60; Homo sapiens, HL-60, 144 h, read-out: IC50 6 d) was 7.00 to 8.00, the pIC50 (MDA-MB-231; Homo sapiens, MDA-MB-231, 144 h, read-out: IC50 6 d) was 6.00 to 7.00 and the “Cell viability at max. concentration” value (MDA-MB-231; MDA-MB-231, 6 d) was “I (I<10%)”. For the same molecule, the pIC50 (MV411; Homo sapiens, MV4-11, 144 h, read-out: IC50 6 d) was 6.00 to 7.00, the “Cell viability at max. concentration” value (MV411; MV411, 6 d) was “I (I<10%)” and the pIC50 (MiaPaCa2; Homo sapiens, MIA PaCa-2, 144 h, read-out: IC50 6 d) was 5.00 to 6.00. For the same molecule, the “Cell viability at max. concentration” value (MiaPaCa2; MiaPaCa2, 6 d) was “I (I<10%)”, the pIC50 (PANC1; Homo sapiens, PANC-1, 144 h, read-out: IC50 6 d) was over 4.00 and the “Cell viability at max. concentration” value (PANC1; PANC1, 6 d) was “IV (IV<100%)”. The pIC50 (SW-1271; Homo sapiens, SW1271, 144 h, read-out: IC50 6 d) was 6.00 to 7.00, the “Cell viability at max. concentration” value (SW-1271; SW-1271, 6 d) was “I (I<10%)” and the pKi (BIR3 domain of XIAP) was at least 7.30. The pKi (BIR3 domain of cIAP1) was at least 7.30, the pKi (BIR3 domain of cIAP2) was 7.00 to 7.30 and the pKi (ML-IAP) was 7.00 to 7.30. For the same molecule, the pEC50 ([2]; Homo sapiens, Jurkat, 48 h, read-out: Jurkat 2D10 GFP+ EC50) was 8.00 to 9.00, the “efficacy in activating the latently infected cell line” value ([2]; Jurkat 2D10, 48 hours, compared with BV-6, SM-164, Birinapant, LCL-161, GDC-0152, AT-406 (FIG. 1)) was “higher efficacy in activating the latently infected cell line than many known compounds” and the “activation of resting CD4+ T cells (CD69, CD25)” value (resting CD4+ T cells) was “did not induce activation of resting CD4+ T cells”. The cytokine release [3] was “did not induce”.
